Our source for the IC50 and DC50 values is patent US20230117034A1, “PYRAZOLOTRIAZINES” (Bayer Aktiengesellschaft, priority 2019, published 2023).

Experiment [1] has as its target T1, CDK2/CycE (Homo sapiens, UniProt P24941).
T1 construct: purchased ProQinase GmbH (Freiburg, Germany); host or cells: insect cells (Sf9)
Nature of the experiment: CDK2/CycE kinase assay (TR-FRET, 2 mM ATP). Type of experiment: biochemical. The note with it: 2 mM ATP (high ATP); median; read-out: CDK2/CyclinE, 2 mM ATP (high ATP), IC50 (median). The method in brief:
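GST-tagged human CDK2 and CycE from Sf9 cells, about 10 ng/ml, pre-incubated 15 min at 22 °C with compound in Tris/HCl pH 8.0 buffer. Reaction with 2 mM ATP and 0.75 µM biotinylated peptide for 25 min at 22 °C. Phospho-RB antibody TR-FRET (665/620 nm ratio) read after 1 h; data normalised to no-inhibitor and no-enzyme controls.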

In experiment [2] the test system is BRCA1 mRNA expression in MDA-MB-231 cells. The experiment is described as follows: qRT-PCR assay: BRCA1 mRNA expression in MDA-MB-231. Type of experiment: cell-based, human. The note with it: Homo sapiens, MDA-MB-231, Inhibition of BRCA1 mRNA expression in MDA-MB-231 cells; median; read-out: RTqPCR-MDA-MB-231, IC50, BRCA1 (median). An outline of the steps:
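Read-out is RT-qPCR with expression normalised to the GAPDH housekeeping gene. Before RNA isolation, plated cells (200,000 per well, 24 h attachment) received test substances continuously over 24 h, and 600 ng of RNA served as cDNA template.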

Experiment [3] concerns the target T2, CYCLIN K (nuclear staining in CAL-120 cells) (Homo sapiens, UniProt O75909).
T2 construct: endogenous in cells; host or cells: CAL-120 human breast cancer cells (DSMZ ACC 459)
Nature of the experiment: CYCLIN K nuclear protein level: immunofluorescence high content analysis (CAL-120). In kind it is cell-based. Conditions: 24 h, 50% reduction of nuclear CCNK staining intensity, median, read-out: CYCLIN K degradation IF, DC50-[mol/l] (median). The method in brief:
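CAL-120 breast cancer cells treated in dose-response for 24 h at 37 °C, PFA-fixed and immunostained for cyclin K with Hoechst counterstain. Confocal imaging quantified nuclear intensity; DC50 is the concentration giving 50% reduction of nuclear CCNK staining, normalized to DMSO and control.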

pIC50: −log10 of the molar value.

T2 sequence (O75909 whole entry): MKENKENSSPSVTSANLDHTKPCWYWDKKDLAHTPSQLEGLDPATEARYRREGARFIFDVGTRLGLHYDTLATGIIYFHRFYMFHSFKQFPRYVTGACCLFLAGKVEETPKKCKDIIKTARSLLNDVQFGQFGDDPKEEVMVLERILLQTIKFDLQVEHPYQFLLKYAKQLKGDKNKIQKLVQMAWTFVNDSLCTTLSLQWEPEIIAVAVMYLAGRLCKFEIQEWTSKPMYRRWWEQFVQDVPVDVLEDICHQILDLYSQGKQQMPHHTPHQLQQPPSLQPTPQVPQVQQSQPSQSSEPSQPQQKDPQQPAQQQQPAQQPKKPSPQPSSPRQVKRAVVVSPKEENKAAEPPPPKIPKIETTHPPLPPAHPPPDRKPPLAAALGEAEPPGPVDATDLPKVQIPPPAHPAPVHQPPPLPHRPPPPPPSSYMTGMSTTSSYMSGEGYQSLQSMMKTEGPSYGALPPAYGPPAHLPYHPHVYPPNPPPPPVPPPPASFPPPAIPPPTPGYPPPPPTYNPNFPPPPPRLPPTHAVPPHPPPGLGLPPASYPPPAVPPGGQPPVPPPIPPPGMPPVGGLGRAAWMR
T2 sequence (Q9NYV4 whole entry partner): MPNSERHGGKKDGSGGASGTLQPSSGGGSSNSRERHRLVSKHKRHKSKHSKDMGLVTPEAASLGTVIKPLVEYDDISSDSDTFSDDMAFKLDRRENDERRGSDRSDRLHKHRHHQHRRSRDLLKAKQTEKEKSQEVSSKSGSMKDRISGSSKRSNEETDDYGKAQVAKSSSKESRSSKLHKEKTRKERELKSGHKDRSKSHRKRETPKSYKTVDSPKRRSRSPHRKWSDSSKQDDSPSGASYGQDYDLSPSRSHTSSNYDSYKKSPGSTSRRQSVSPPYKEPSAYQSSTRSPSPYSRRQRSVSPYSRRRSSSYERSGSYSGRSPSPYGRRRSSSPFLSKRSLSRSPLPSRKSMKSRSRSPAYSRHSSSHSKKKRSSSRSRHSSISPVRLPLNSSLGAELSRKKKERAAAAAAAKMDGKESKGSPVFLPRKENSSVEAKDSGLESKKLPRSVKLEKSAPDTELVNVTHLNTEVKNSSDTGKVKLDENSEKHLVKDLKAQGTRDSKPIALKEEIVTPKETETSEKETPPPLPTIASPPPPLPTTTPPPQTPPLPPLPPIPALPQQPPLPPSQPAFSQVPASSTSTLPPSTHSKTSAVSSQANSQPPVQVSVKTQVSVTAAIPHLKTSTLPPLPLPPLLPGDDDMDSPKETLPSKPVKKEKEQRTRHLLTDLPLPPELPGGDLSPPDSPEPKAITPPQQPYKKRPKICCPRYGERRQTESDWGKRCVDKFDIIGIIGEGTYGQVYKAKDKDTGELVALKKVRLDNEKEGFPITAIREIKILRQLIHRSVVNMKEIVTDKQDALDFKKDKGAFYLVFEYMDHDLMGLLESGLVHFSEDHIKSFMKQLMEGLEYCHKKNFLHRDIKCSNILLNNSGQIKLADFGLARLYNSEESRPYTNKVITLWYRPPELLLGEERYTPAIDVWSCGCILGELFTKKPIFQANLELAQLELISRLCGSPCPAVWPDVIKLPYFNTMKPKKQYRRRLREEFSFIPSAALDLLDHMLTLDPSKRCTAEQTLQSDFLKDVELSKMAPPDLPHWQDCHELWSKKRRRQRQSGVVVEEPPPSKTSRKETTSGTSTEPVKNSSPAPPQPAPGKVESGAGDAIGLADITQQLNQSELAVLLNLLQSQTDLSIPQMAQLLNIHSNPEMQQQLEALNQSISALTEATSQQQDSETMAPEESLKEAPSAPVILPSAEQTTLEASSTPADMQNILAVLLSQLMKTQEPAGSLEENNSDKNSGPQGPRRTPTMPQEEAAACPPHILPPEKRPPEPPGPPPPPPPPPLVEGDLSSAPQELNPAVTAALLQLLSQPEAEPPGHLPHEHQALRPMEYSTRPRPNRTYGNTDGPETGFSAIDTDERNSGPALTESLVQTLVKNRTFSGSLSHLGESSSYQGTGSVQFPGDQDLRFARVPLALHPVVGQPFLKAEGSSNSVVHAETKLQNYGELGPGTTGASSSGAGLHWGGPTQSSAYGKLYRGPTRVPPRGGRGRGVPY

For the compound `CC1(C)CN(c2nc(NCc3nc4ccccc4[nH]3)n3ncc(Br)c3n2)CCO1` [Example 58, N-[(1H-benzimidazol-2-yl)methyl]-8-bromo-2-(2,2-dimethylmorpholin-4-yl)pyrazolo[1,5-a][1,3,5]triazin-4-amine], the pIC50 is 4.97 in experiment [1] and 7.31 in experiment [2]. For the same compound, in experiment [3], the DC50 was 1.66 nM.

For the compound `Fc1ccc2[nH]c(CNc3nc(N4CCOCC4)nc4c(CC(F)F)cnn34)nc2c1F.O=C(O)C(F)(F)F` [Example 425, trifluoroacetic acid N-[(4,5-difluoro-1H-benzimidazol-2-yl)methyl]-8-(2,2-difluoroethyl)-2-(morpholin-4-yl)pyrazolo[1,5-a][1,3,5]triazin-4-amine], the figures for the pIC50 in experiment [1] and in experiment [2] were below 4.70 and 8.57, respectively. The DC50 in experiment [3] amounted to 0.545 nM.

Turning to `Clc1cc2nc(CNc3nc(N4CCOCC4)nc4c(-c5cncs5)cnn34)[nH]c2cc1Cl` [Example 443, N-[(5,6-dichloro-1H-benzimidazol-2-yl)methyl]-2-(morpholin-4-yl)-8-(1,3-thiazol-5-yl)pyrazolo[1,5-a][1,3,5]triazin-4-amine], the pIC50 in experiment [1] is below 4.70; in experiment [2] it was 8.66. For the same compound, the DC50 in experiment [3] was determined as 2.22 nM.

Turning to `Brc1cnn2c(NCc3nnc(-c4ccccc4)[nH]3)nc(N3CCCCC3)nc12` [Example 49, 8-bromo-N-[(5-phenyl-4H-1,2,4-triazol-3-yl)methyl]-2-(piperidin-1-yl)pyrazolo[1,5-a][1,3,5]triazin-4-amine], the pIC50 in experiment [1] is 5.64; in experiment [2], 7.16. For the same compound, the DC50 in experiment [3] stood at 5.34 nM.

In the case of `N#Cc1cnn2c(NCc3nc4ccccc4[nH]3)nc(N3CCOCC3)nc12` [Example 43, 4-{[(1H-benzimidazol-2-yl)methyl]amino}-2-(morpholin-4-yl)pyrazolo[1,5-a][1,3,5]triazine-8-carbonitrile], the pIC50 in experiment [1] was below 4.70; in experiment [2] it was 7.16. The DC50 in experiment [3] turned out to be 5.35 nM.

`Brc1cnn2c(NCc3nc4ccccc4[nH]3)nc(N3CCCCC3)nc12` [Example 46, N-[(1H-benzimidazol-2-yl)methyl]-8-bromo-2-(piperidin-1-yl)pyrazolo[1,5-a][1,3,5]triazin-4-amine]: the pIC50 is 5.73 in experiment [1] and 7.90 in experiment [2]. Further, in experiment [3], the DC50 was 1.54 nM.

Take `CN1CCN(c2nc(NCc3nc4c(F)c(F)ccc4[nH]3)n3ncc(CC(F)(F)F)c3n2)CC1` [Example 437, N-[(4,5-difluoro-1H-benzimidazol-2-yl)methyl]-2-(4-methylpiperazin-1-yl)-8-(2,2,2-trifluoroethyl) pyrazolo[1,5-a][1,3,5]triazin-4-amine]: the pIC50 in experiment [1] is below 4.70; in experiment [2] it was 8.21. Besides, the DC50 in experiment [3] was determined as 2.09 nM.

In the case of `Brc1cnn2c(NCc3nc4ccccc4[nH]3)nc(N3CC4(COC4)C3)nc12` [Example 48, N-[(1H-benzimidazol-2-yl)methyl]-8-bromo-2-(2-oxa-6-azaspiro[3.3]heptan-6-yl)pyrazolo[1,5-a][1,3,5]triazin-4-amine], the pIC50 in experiment [1] is 4.90; in experiment [2], 7.03. In addition, the DC50 in experiment [3] was 7.03 nM.

Consider `CN(CC(C)(C)O)c1nc(NCc2nc3c(F)c(F)ccc3[nH]2)n2ncc(C(F)(F)F)c2n1` [Example 402, 1-{[4-{[(4,5-difluoro-1H-benzimidazol-2-yl)methyl]amino}-8-(trifluoromethyl)pyrazolo[1,5-a][1,3,5]triazin-2-yl](methyl)amino}-2-methylpropan-2-ol], for which the pIC50 in experiment [1] was 5.02; in experiment [2], 8.42. Also, in experiment [3], the DC50 was 1.78 nM.

On to `FC(F)Cc1cnn2c(NCc3nc4ccccc4[nH]3)nc(N3CCOCC3)nc12.O=C(O)C(F)(F)F` [Example 444, trifluoroacetic acid N-[(1H-benzimidazol-2-yl)methyl]-8-(2,2-difluoroethyl)-2-(morpholin-4-yl)pyrazolo[1,5-a][1,3,5]triazin-4-amine], for which the pIC50 in experiment [1] was 4.81; in experiment [2], 7.29. Also, in experiment [3], the DC50 is 5.91 nM.

For `C[C@H]1COCCN1c1nc(NCc2nc3ccccc3[nH]2)n2ncc(Br)c2n1` [Example 57, N-[(1H-benzimidazol-2-yl)methyl]-8-bromo-2-[(3S)-3-methylmorpholin-4-yl]pyrazolo[1,5-a][1,3,5]triazin-4-amine], the pIC50 is 5.91 in experiment [1] and 8.82 in experiment [2]. The DC50 in experiment [3] was 0.189 nM.

Consider `CCc1cnn2c(NCc3nc4c(OC)cccc4[nH]3)nc(N3CCOCC3)nc12` [Example 433, 8-ethyl-N-[(4-methoxy-1H-benzimidazol-2-yl)methyl]-2-(morpholin-4-yl)pyrazolo[1,5-a][1,3,5]triazin-4-amine], for which the pIC50 in experiment [1] was 5.75; in experiment [2], 7.97. Moreover, the DC50 in experiment [3] was 0.441 nM.

For the compound `Fc1ccc2[nH]c(CNc3nc(N4CCOCC4)nc4c(-c5nccs5)cnn34)nc2c1F` [Example 413, N-[(4,5-difluoro-1H-benzimidazol-2-yl)methyl]-2-(morpholin-4-yl)-8-(1,3-thiazol-2-yl)pyrazolo [1,5-a][1,3,5]triazin-4-amine], the pIC50 in experiment [1] is below 4.70; in experiment [2] it was 7.08. Moreover, the DC50 in experiment [3] came to 6.91 nM.

On to `CN1CCN(c2nc(NCc3nc4ccccc4[nH]3)n3ncc(C4CC4(F)F)c3n2)CC1` (centres unmarked) [Example 428, N-(1H-benzimidazol-2-ylmethyl)-8-(2,2-difluorocyclopropyl)-2-(4-methylpiperazin-1-yl)pyrazolo[1,5-a][1,3,5]triazin-4-amine], for which the pIC50 in experiment [1] is below 4.70. The DC50 in experiment [3] came out at 6.19 nM.

Consider `CN1CCN(c2nc(NCc3nc4ccccc4[nH]3)n3ncc(CC(F)(F)F)c3n2)CC1` [Example 436, N-[(1H-benzimidazol-2-yl)methyl]-2-(4-methylpiperazin-1-yl)-8-(2,2,2-trifluoroethyl)pyrazolo [1,5-a][1,3,5]triazin-4-amine], for which the pIC50 in experiment [1] was below 4.70. Moreover, the DC50 in experiment [3] came out at 15.9 nM.

As to `Fc1ccc(-c2nnc(CNc3nc(N4CCOCC4)nc4c(Br)cnn34)[nH]2)c(F)c1` [Example 41, 8-bromo-N-{[5-(2,4-difluorophenyl)-4H-1,2,4-triazol-3-yl]methyl}-2-(morpholin-4-yl)pyrazolo[1,5-a][1,3,5]triazin-4-amine], the pIC50 in experiment [1] was below 5.79; in experiment [2], 5.44.

`CC(C)(O)COc1nc(NCc2nc3ccccc3[nH]2)n2ncc(Br)c2n1` [Example 398, 1-[(4-{[(1H-benzimidazol-2-yl)methyl]amino}-8-bromopyrazolo[1,5-a][1,3,5]triazin-2-yl)oxy]-2-methylpropan-2-ol]: the pIC50 in experiment [1] is 4.98. Besides, in experiment [3], the DC50 amounted to 10.4 nM.

As to `Cc1cnn2c(NCc3nc4c(F)c(F)ccc4[nH]3)nc(N3CC4CCC(C3)N4)nc12` [Example 400, 2-(3,8-diazabicyclo[3.2.1]octan-3-yl)-N-[(4,5-difluoro-1H-benzimidazol-2-yl)methyl]-8-methylpyrazolo[1,5-a][1,3,5]triazin-4-amine], the pIC50 is below 4.70 in experiment [1] and 7.85 in experiment [2].

On to `Brc1cnn2c(NCc3nc4ccccc4[nH]3)nc(OC3CCNCC3)nc12` [Example 411, N-[(1H-benzimidazol-2-yl)methyl]-8-bromo-2-[(piperidin-4-yl)oxy]pyrazolo[1,5-a][1,3,5]triazin-4-amine], for which the pIC50 in experiment [1] is 4.79. In experiment [3], the DC50 was 15.9 nM.

For the compound `Cn1cc(-c2cnn3c(NCc4nc5c(F)c(F)ccc5[nH]4)nc(N4CCOCC4)nc23)cn1` [Example 418, N-[(4,5-difluoro-1H-benzimidazol-2-yl)methyl]-8-(1-methyl-1H-pyrazol-4-yl)-2-(morpholin-4-yl)pyrazolo[1,5-a][1,3,5]triazin-4-amine], the pIC50 in experiment [1] was below 4.70. Moreover, in experiment [3], the DC50 is 2.4 nM.

Consider `CC(C)c1cnn2c(NCc3nnc(-c4ccccc4)[nH]3)nc(N3CCOCC3)nc12` [Example 33, 2-(morpholin-4-yl)-N-[(5-phenyl-4H-1,2,4-triazol-3-yl)methyl]-8-(propan-2-yl)pyrazolo[1,5-a][1,3,5]triazin-4-amine], for which the pIC50 in experiment [1] is 5.08; in experiment [2], 7.63.

Take `FC(F)n1cc(-c2cnn3c(NCc4nc5ccccc5[nH]4)nc(N4CCOCC4)nc23)cn1` [Example 421, N-[(1H-benzimidazol-2-yl)methyl]-8-[1-(difluoromethyl)-1H-pyrazol-4-yl]-2-(morpholin-4-yl)pyrazolo[1,5-a][1,3,5]triazin-4-amine]: the pIC50 in experiment [1] was below 4.70; in experiment [2], 7.13.

In the case of `Cn1cc(-c2cnn3c(NCc4nc5cc(Cl)c(Cl)cc5[nH]4)nc(N4CCOCC4)nc23)cn1` [Example 419, N-[(5,6-dichloro-1H-benzimidazol-2-yl)methyl]-8-(1-methyl-1H-pyrazol-4-yl)-2-(morpholin-4-yl)pyrazolo[1,5-a][1,3,5]triazin-4-amine], the pIC50 in experiment [1] was below 4.70. The DC50 in experiment [3] came out at 9.09 nM.
